Test results reported in patent publication US4937232A, “Inhibition of protein kinase C by long-chain bases” (priority 1988, dated 1990).
Entries after “also recorded” stand apart in the source; their conditions may differ. Where two headings read alike, the source gives them in different places.

How the values were obtained:
[1] = test system: human neutrophils; assay: Oxygen consumption (oxidative burst) of human neutrophils; assay type: cell-based; conditions: for IC50: read-out: Concentration required for 50% inhibition; for RATE of oxygen consumption, NO SPHINGANINE: activator alone
Description: Human neutrophils were obtained by continuous flow leukapheresis from normal adults. Residual erythrocytes were removed by hypotonic lysis with a resulting purity of >95% neutrophils. Alternatively peripheral blood was obtained by phlebotomy and neutrophils were isolated by HESPAN (6% Hetastarch, 0.9% NaCl) sedimentaion of erythrocytes, centrifugation through lymphocyte separation medium (9.4% sodium diatrizoate, 6.2% Ficoll), and hypotonic lysis of residual erythrocytes. Isolated cells were resuspended in phosphate buffered saline (PBS)-glucose, containing 0.6 mM CaCl2, 2.6 mM KCl, 1.5 mM KH2 PO4, 0.5 mM MgCl2, 136 mM NaCl, 8 mM Na2 HPO4, 5.5 mM glucose.
Oxygen consumption was measured using a Clark-type electrode with YSI model 53 oxygen monitor. Assays were conducted at 37° C. with 6.5×10^6 cells per ml with a total volume of either 2.5 ml or 4 ml. Effectors were injected into the electrode chamber using a Hamilton syringe. Initial slopes after the addition of the stimuli were used for rate calculations. For activators with a lag prior to the onset of the oxidative burst, maximal rates following the lag were used.

[2] = test system: protein kinase C; assay: Triton X-100 mixed micellar assay for protein kinase C activity; assay type: biochemical, rat; conditions: mixed micellar assay
Method: Protein kinase C was partially purified from rat brain as described by Hanrun et al (J. Biol. Chem., 260, 10043, 1985), which is hereby incorporated by reference.
Protein kinase C was assayed with Triton X-100 mixed micelles as described by Hanrun et al, (ibid.), Sphingosine was dried down with the lipid cofactors.

[3] = test system: HL-60 cells; assay: PMA-induced adherence (attachment) of HL-60 cells; assay type: cell-based, human; conditions: for inhibition of PMA-induced attachment: 8 nM PMA
Method: Cells were centrifuged at 600 g for 3 min, and added at 1×10^5 cells per well in 12-well culture dishes. Medium, PMA, and long-chain bases (prepared as the 1:1 molar complex with fatty acid-free bovine serum albumin) at the indicated concentrations were added for a total volume of 2.0 ml. After the desired times, the cells in suspension were counted and checked for viability (trypan blue exclusion) with a hemacytometer. The attached cells were quantitated by measuring DNA content according to the method of West et al (Anal. Biochem., 147, 289-295, 1985) and by assaying for acid phosphatase according to the method of Schnyder (J. Exp. Med., 148, 434-445, 1978).

[4] = biological target: protein kinase C; assay: Mixed micellar protein kinase C activity assay for lysosphingolipids (Table VI); assay type: biochemical; conditions: for Inhibition of Protein Kinase C, concentration giving 50% inhibition, (mol %): 0.3% Triton X-100, 1 mol % = 43 μM; for IC50: 0.3% Triton X-100 mixed micelles, 2 mol % dioleoylglycerol, read-out: Inhibition of Protein Kinase C, concentration giving 50% inhibition; for IC50 / inhibition of protein kinase C activity: 6 mol % phosphatidylserine; for inhibition of protein kinase C activity: 2 mol % sn-1,2-dioleoylglycerol, 100 μM Ca2+
Method: (§1) TABLE VI: Inhibition of protein kinase C activity and phorbol-dibutyrate binding by lysosphingolipids. […] The remaining two columns show the observed effects of the lysosphingolipids of protein kinase C activity and phorbol diester binding in vitro and in human platelets. Lysogangliosides were prepared from their parental gangliosides by hydrolysis in methanolic KOH esentially as described by Neuenhofer et al. in Bioch. 24, 525, 1985. During this preparation, with approximately 90-95% conversion, the N-acetate of N-acetylneuraminic acid is partially hydrolyzed. Fatty acids were partitioned into heptane after acidification of the methanolic reaction mixture. Galactosylsphingosine, glucosylsphingosine, and lactosylsphingosine were prepared as previously described for galactosylsphingosine (Radin, Lipids 9, 358, 1974) Sphingosylphosphorylcholine was prepared by hydrolysis in HCl-butanol (Kaller, Biochemische Zeitschrift 334, 451, 1961). The purity of the lyso derivatives (greater than 90%) was checked by thin layer chromatography (TLC) on silica gel H plates developed in chloroform/methanol/2N NH4 OH (65/35/9) and visualized by ninhydrin reaction for N-lyso compounds, by α-naphthol/sulfuric acid for both gangliosides and lysogangliosides,and by a phospholipid spray for sphingosylphosphorylcholine. Lysosphingolipids were quantitated by reaction of the amine group with trinitrobenzenesulfonate. Gangliosides and lysosphingolipids were also quantitated by reaction with anthrone. The lysosphingolipids were then studied for their effect on protein kinase C activity. Protein kinase C was purified to near homogeneity by the method of Wolf et al. (J. Biol. Chem. 260, 15718, 1985), and activity was measured using a mixed micellar assay (described herein). Lysosphingolipids were added directly in aqueous solution, and allowed to equilibrate with the Triton X-100 (0.3% w/v) mixed micelles containing 6 mol % phosphatidylserine and 2 mol % dioleoylglycerol. […] Phorbol-dibutyrate binding was measured in a mixed micellar assay. Lysosphingolipids inhibited phorbol-dibutyrate binding to protein kinase C in the presence of Triton X-100 mixed micelles containing 20 mol % phosphatidylserine. […] The difference is related to the higher concentration of phosphatidylserine used in the binding assay, as both activity and binding show a high cooperative dependence on phosphatidylserine, which modulates the inhibition by lysosphingolipids. Phorbol-dibutyrate binding to human platelets and 40 kDa phosphorylation in platelets were carried out as described above. Lysosphingolipids inhibited phorbol dibutyrate binding to human platelets at concentrations in the 10-50 μM range. Inhibition of 40 kDa phosphorylation occurred over the same concentration range.

[5] = test system: protein kinase C-induced phosphorylation of the 40 KDa polypeptide; assay: 40K (40 kDa) protein phosphorylation in human platelets; assay type: cell-based; conditions: concentrations less than 100 μM
Method: They were then suspended in modified Tyrode's buffer to a concentration of 2.5×10^8 platelets/ml.
^32 Pi at 0.2 mCi/ml was added to the platelet suspension and labelling was allowed to proceed for 75 minutes at 37° C., after which the platelets were pelleted at 600×g for 10 minutes and resuspended in Tyrode's buffer to the same concentration. They were then aliquoted in Eppendorf microfuge tubes and preincubated at 37° C. for 5 minutes with the varying concentrations of sphingosine. Platelets were then stimulated with either 5 μM dioctanoylglycerol (added as an ethanol solution with the final concentration of ethanol 0.5%), 10 μM TPA, or 1 unit/ml thrombin. The reactions were stopped after 30 seconds by the addition of an equal volume of 2× sample buffer, and the samples were then boiled for 3 minutes. […] Gels were subsequently fixed in water/methanol/acetic acid (60:30:10), dried, and autoradiographed.

[6] = biological target: protein kinase C; assay: Phorbol-dibutyrate binding to protein kinase C, mixed micellar assay (Table VI); conditions: Triton X-100 mixed micelles, 20 mol % phosphatidylserine
Method: as §1

[7] = oxidative burst, PMA activation
[8] = Homo sapiens, Neutrophil, oxidative burst, PMA activation

## 3-amino-3-hydroxy-3-phenyl-propanol [reference compound]
[1]; [7]
  IC50: > 100 µM

## CCCCCCCCCCCCCCC[C@H](O)[C@@H](N)CO (relative stereo) [threo-Sphinganine]
[2]
  inhibition of protein kinase C (specificity): inhibitors
[1]; [8]
  IC50: 24 µM
[1]; [7]
  times less effective than erythro-sphinganine: 3-4 times

## NC(CO)C(O)c1ccccc1 (stereo not shown) [1,3-dihydroxy-2-amino-3-phenylpropane]
[2]
  inhibition of protein kinase C (specificity): not to be inhibitors
[2]; listed as 1,3-dihydroxy-2-amino-3 phenylpropane
  inhibition of protein kinase C (specificity): without effect
[3]
  inhibition of PMA-induced attachment: did not inhibit

## CCCCCCCCCCCCCCCC(=O)C(N)CO (stereo not shown) [3-ketosphinganine]
[2]
  inhibition of protein kinase C (specificity): inhibitors

## CCCCC/C=C\C/C=C\C/C=C\C/C=C\CCCC(=O)O [Arachidonate, reference compound]
[1]
  RATE of oxygen consumption, NO SPHINGANINE: 4.2 nmols O2 consumed/min/10^6 cells

## CCCCCCCCCCCCCCCC[N+](C)(C)C.[Br-] [CTAB, cetyl trimethylammonium bromide]
[2]; listed as cetyl triethylammonium bromide
  inhibition of protein kinase C (specificity): inactive; also recorded: not to be inhibitors
[1]; [8]
  IC50: > 100 µM

## CCCCCCCC(=O)OCC(CO)OC(=O)CCCCCCC (stereo not shown) [Dioctanoyl Glycerol, 1,2-dioctanoylglycerol, reference compound]
[1]
  RATE of oxygen consumption, NO SPHINGANINE: 6.1 nmols O2 consumed/min/10^6 cells

## CCCCCCCCCCCCCCC[C@@H](O)[C@H](CO)NC(C)=O [N-acetylsphinganine, reference compound]
[3]; at up to 500 μM
  inhibition of PMA-induced attachment: not inhibitory
[1]; [8]
  IC50: > 100 µM

## CCCCCCCCCCCCC/C=C/[C@@H](O)[C@H](CO)NC(C)=O [N-acetylsphingosine]
[2]
  inhibition of protein kinase C (specificity): without effect; also recorded: not to be inhibitors

## CCCCCCCCCCCCCCCC(=O)NC(CO)C(O)CCCCCCCCCCCCCCC (stereo not shown) [N-palmitoyldihydrosphingosine, reference compound]
[3]
  inhibition of PMA-induced attachment: not inhibitory

## CCCCCCCCN [Octylamine, reference compound]
[2]
  inhibition of protein kinase C (specificity): did not inhibit
[3]
  inhibition of PMA-induced attachment: did not inhibit
[1]; [8]
  IC50: 300 µM

## CCCCCCCCCCCCCCCCCCN [Stearylamine, reference compound]
[2]
  inhibition of protein kinase C (specificity): nearly as effective as sphingosine
[3]; Homo sapiens, HL-60, read-out: 50% inhibition of PMA-induced attachment
  IC50: 10 µM
[1]; [8]
  IC50: 25 µM

## O[C@H]1[C@H]2[C@H](O)CCCN2C[C@H]1O [Swainsonine]
[2]
  inhibition of protein kinase C (specificity): not an inhibitor

## CCCCCCCCCCCCC/C=C/[C@@H](O)[C@@H](N)CO[C@@H]1O[C@H](CO)[C@@H](O[C@@H]2O[C@H](CO)[C@H](O[C@H]3O[C@H](CO)[C@H](O)[C@H](O)[C@H]3O)[C@H](O)[C@H]2O)[C@H](O)[C@H]1O [globotriosylsphingosine]
[4]
  Inhibition of Protein Kinase C, concentration giving 50% inhibition, (mol %): 4.2 mol %
  IC50: 180 µM

## CCCCCCCCCCCCC/C=C/[C@@H](O)[C@H](CO[C@@H]1O[C@H](CO)[C@H](O)[C@H](O)[C@H]1O)NC(C)=O [reference compound]
[4]
  inhibition of protein kinase C activity: None of these N-acetyl derivatives inhibited
[5]
  effect on 40 kDa phosphorylation in platelets: did not affect

## CCCCCCCCCCCCC/C=C/[C@@H](O)[C@H](COP(=O)([O-])OCC[N+](C)(C)C)NC(C)=O [reference compound]
[4]
  inhibition of protein kinase C activity: None of these N-acetyl derivatives inhibited
[5]
  effect on 40 kDa phosphorylation in platelets: did not affect

## CCCCCCCCCCCCC/C=C/[C@@H](O)[C@@H](N)COP(=O)([O-])OCC[N+](C)(C)C [sphingosylphosphorylcholine]
[4]
  Inhibition of Protein Kinase C, concentration giving 50% inhibition, (mol %): 2.8 mol %
  IC50: 120 µM
[6]
  Inhibition of [3H]PDBu Binding to Protein Kinase, (mol %): 11.6 mol %
[6]; read-out: Inhibition of [3H]PDBu Binding to Protein Kinase
  IC50: 500 µM

## sphingomyelin [reference compound]
[4]
  inhibition of protein kinase C activity: None of the parent compounds inhibited
